Entries after “also recorded” stand apart in the source; their conditions may differ.
Key:
[1] = test system: Bax; assay: Bax expression in LOX-D RPE cells under oxidative stress; type: cell-based, human
Experimental: (§1) FIG. 8. (A) Bcl-xL-upregulation by elovanoids ELV1 and ELV2 in ARPE-19 cells under stress. Bcl-xL is the antiapoptotic Bcl2 family protein. Like proapoptotic proteins Bid and Bim, the effect of elovaniod precursors on the antiapoptotic protein Bcl-xL was tested in this figure in RPE cells under OS. […] (B) Effect of NPD1, ELV1 and ELV2 on Bax expression in LOX-D cells under stress. Proapoptotic Bax was tested in this figure. […] C) VLC-PUFA and elovanoids ELV1 and ELV2 mediated effect on Bax upregulation in ARPE-19 cells under stress. In this experiment, elovanoid precursors along with VLC-PUFA were tested on the downregulation of the Bax protein in RPE cells under stress.
as §1, with “8—(A)” for “8. (A)”

[2] = test system: Bid; assay: Bid protein by western blot in ARPE-19 cells under oxidative stress; type: cell-based, human
Source text: FIG. 6. (A) VLC-PUFA and elovanoids ELV1 and ELV2 mediated effect on Bid upregulation in ARPE-19 cells under stress. […] (B) VLC-PUFA and ELV1 and ELV2 compounds mediated upregulation of Bid in ARPE-19 cells under stress.
FIG. 6—(A) VLC-PUFA and elovanoids ELV1 and ELV2 mediated effect on Bid upregulation in ARPE-19 cells under stress. […] (B) VLC-PUFA and ELV1 and ELV2 compounds mediated upregulation of Bid in ARPE-19 cells under stress.

[3] = test system: Bcl2; assay: Bcl2 protein in RPE (LOX-D / ARPE-19) cells under oxidative stress; type: cell-based, human
Source text: FIG. 9. (A) VLC-PUFA and elovanoids ELV1 and ELV2 mediated effect on Bcl2 upregulation in ARPE-19 cells under stress. In this experiment we tested the effect of elovanoid precursors on Bcl2 upregulation along with VLC-PUFA in stressed RPE. (B) Quantification of Bcl2 upregulation by NPD1, ELV1 and ELV2 in LOX-D cells. Bcl2 is an important antiapoptotic protein of the Bcl2 family protein.
FIG. 9—(A) VLC-PUFA and elovanoids ELV1 and ELV2 mediated effect on Bcl2 upregulation in ARPE-19 cells under stress. In this experiment we tested the effect of elovaniod precursors on Blc2 upregulation along with VLC-PUFA in stressed RPE. (B) Quantification of Bcl2 upregulation by NPD1, ELV1 and ELV2 in LOX-D cells. Bcl2 is an important antiapoptotic protein of the Bcl2 family protein.

[4] = test system: human retinal pigment epithelial cells (ARPE-19, HRPE); assay: Formation of hydroxylated derivatives from VLC-PUFA in human RPE cells in culture (LC-MS/MS); type: in vitro ADME; conditions: 34:6n3 100 nM, 12-16 hours, culture media
Experimental: FIG. 2. Evidence of cell-derived hydroxylated derivatives (29-hydroxy-34:6 and 22,29-dihydroxy-34:6) derived from the omega-3 VLC-PUFA 34:6n3 (C34:6) from human retinal pigment epithelial cells in culture. Human retinal pigment epithelial cells (spontaneously transformed ARPE-19 cells) or primary human retinal pigment epithelial cells (HRPE) were incubated with 34:6n3 (100 nM) during 12-16 hours and then the culture media collected lipid extracted and run in LC-MS/MS.
Evidence for the formation of hydroxylated VLC-PUFA in cells as postulated in FIG. 1, and as documented in FIG. 2. […] The preferred structures of 2 are 2a and 2b, while the preferred structures of 3 are 3a and 3b. […] The cell-derived hydroxylated derivatives 2 and 3 were obtained from human retinal pigment epithelial cells in culture. Human retinal pigment epithelial cells (spontaneously transformed ARPE-19 cells) or primary human retinal pigment epithelial cells (HRPE) were incubated with 34:6n3 (100 nM) during 12-16 hours and then the culture media collected lipid extracted and run in LC-MS/MS. […] The stereochemistry of the mono- and di-hydroxy compounds were not possible to determine, but they were presumed to be the same as those derived from DHA.

Row | SMILES | effect on Bax upregulation by OS (FIG. 8B) [1] | effect on Bid protein upregulated by OS (FIG. 6) [2] | effect on Bcl2 protein (FIG. 9) [3] | conversion to mono- and di-hydroxylated derivatives in cell culture (FIG. 2) [4]
1 | CC/C=C\C[C@H](O)\C=C/C=C/C=C/[C@H](O)C/C=C\C/C=C\CCCCCCCCCCCCCCC(=O)O [ELV2, (16Z,19Z,22R,23E,25E,27Z,29S,31Z)-22,29-dihydroxytetratriaconta-16,19,23,25,27,31-hexaenoic acid] | potent downregulation | potent downregulation | potent upregulation | 
2 | CC/C=C\C/C=C\C/C=C\C/C=C\C/C=C\C/C=C\CCCCCCCCCCCCCCC(=O)O [C34:6] |  |  |  | yielded a hydroxylated product; also recorded: could be detected

— patent US12565467B2, “Compounds, compositions, and methods for the treatment of inflammatory, degenerative, and neurodegenerative diseases” (Board of Supervisors of Louisiana State University and …, priority 2015, dated 2026)
